This series can be described thus: collision cross section in nitrogen (drift tube, single-field); higher = larger gas-phase ion size.
Where [1] appears, read: ion type: [M+H], ion source: ESI, ion mode: Positive.
The mark [2] stands for this setting: ion type: [M+H], ion source: APCI, ion mode: Positive.
Setting [3] is: ion type: [M+Na], ion source: ESI, ion mode: Positive.
Where [4] appears, read: ion type: [M-H], ion source: ESI, ion mode: Negative.
[5] abbreviates: ion source: APCI, ion mode: Positive, ion type: [M]+ (permanent cation).
Where [6] appears, read: ion source: ESI, ion mode: Positive, ion type: [M]+ (permanent cation).

This is an account of results in the supplement of paper PMC12317010.

Counter-ions that a name gives are not always drawn.
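Further: chemical standards at 10 µM analysed by drift tube IMS-QTOF MS in about 3.95 torr nitrogen, mean of duplicate injections differing ≤1%, mass error below 10 ppm.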

As for `CCCN(CC)CC1COC2(CCC(C(C)(C)C)CC2)O1` (configuration not stated) [Spiroxamine], under setting [1], the “collision cross section in nitrogen” value was found to be 176.6 Å². As to `O=C1C[C@@H]2OCC=C3CN4CC[C@]56c7ccccc7N1[C@H]5[C@H]2[C@H]3C[C@H]46` [Strychnine hemisulphate salt], the “collision cross section in nitrogen” value is, setting by setting: under setting [2], 172.6 Å²; under setting [1], 175.8 Å². The like results for `O=C1C[C@@H]2OCC=C3CN4CC[C@]56c7ccccc7N1[C@H]5[C@H]2[C@H]3C[C@H]46` [Strychnine] were, in that order, 172 Å² and 175.2 Å². As to `OC[C@H]1O[C@H](O[C@]2(CCl)O[C@H](CCl)[C@@H](O)[C@@H]2O)[C@H](O)[C@@H](O)[C@H]1Cl` [Sucralose], the “collision cross section in nitrogen” value came to 179.7 Å² under setting [3] and 174.5 Å² under setting [4].

For the compound `CC(=O)OC[C@H]1O[C@@](COC(C)=O)(O[C@H]2O[C@H](COC(C)=O)[C@@H](OC(C)=O)[C@H](OC(C)=O)[C@H]2OC(C)=O)[C@@H](OC(C)=O)[C@@H]1OC(C)=O` [Sucrose octaacetate], under setting [3], the “collision cross section in nitrogen” value amounted to 238.1 Å². On to `NS(=O)(=O)O` [Sulfamic acid], for which the “collision cross section in nitrogen” value under setting [4] turned out to be 112 Å². Take `O=C(O)c1cc(N=Nc2ccc(S(=O)(=O)Nc3ccccn3)cc2)ccc1O` [Sulfasalazine]: the “collision cross section in nitrogen” value under setting [2] was determined as 203.9 Å², the “collision cross section in nitrogen” value under setting [1] is given as 203.6 Å² and the “collision cross section in nitrogen” value under setting [4] came to 197.5 Å². In the case of `Nc1ccc(S(=O)(=O)Nc2nccs2)cc1` [Sulfathiazole sodium], the “collision cross section in nitrogen” value runs as follows: under setting [2], 153.3 Å²; under setting [1], 153.6 Å²; under setting [3], 167.2 Å²; under setting [4], 154.1 Å². On to `Nc1ccc(S(=O)(=O)Nc2nccs2)cc1` [Sulfathiazole], for which the “collision cross section in nitrogen” value turned out to be 153.5 Å² under setting [2], 153.9 Å² under setting [1], 167.5 Å² under setting [3] and 154.3 Å² under setting [4]. On to `Cc1nn(-c2cc(NS(C)(=O)=O)c(Cl)cc2Cl)c(=O)n1C(F)F` [Sulfentrazone], for which the “collision cross section in nitrogen” value reads like this: under setting [1], 178.2 Å²; under setting [3], 184 Å²; under setting [4], 182.4 Å². `O=C(O)CC(C(=O)O)S(=O)(=O)O` (configuration not stated) [Sulfosuccinic acid]: the “collision cross section in nitrogen” value under setting [4] was found to be 124.5 Å².

In the case of `CCOP(=S)(OCC)OP(=S)(OCC)OCC` [Sulfotep], the “collision cross section in nitrogen” value under setting [3] was found to be 172.2 Å². On to `CC1=C(CC(=O)O)c2cc(F)ccc2/C1=C\c1ccc(S(C)=O)cc1` (configuration not stated) [Sulindac], for which the “collision cross section in nitrogen” value under setting [1] was 196.2 Å². As for `COc1cc(O)c(C(=O)c2ccccc2)cc1S(=O)(=O)O` [Sulisobenzone hydrate], the “collision cross section in nitrogen” value under setting [4] stood at 167.7 Å². For `COc1cc(O)c(C(=O)c2ccccc2)cc1S(=O)(=O)O` [Sulisobenzone], under setting [4], the “collision cross section in nitrogen” value amounted to 168.1 Å².

Consider `Cc1cc(CCC(=O)OCC(C)(C)C2OCC3(CO2)COC(C(C)(C)COC(=O)CCc2cc(C)c(O)c(C(C)(C)C)c2)OC3)cc(C(C)(C)C)c1O` (configuration not stated) [Sumilizer GA 80], for which the “collision cross section in nitrogen” value under setting [2] came out at 268.1 Å²; the “collision cross section in nitrogen” value under setting [3] came to 261.6 Å²; the “collision cross section in nitrogen” value (ion type: [M+], ion source: APCI, ion mode: Positive) is on record as 269.1 Å²; the “collision cross section in nitrogen” value under setting [4] is 268.7 Å². For `CCN(CC)CCNC(=O)c1c(C)[nH]c(/C=C2\C(=O)Nc3ccc(F)cc32)c1C` [Sunitinib malate], the “collision cross section in nitrogen” value was 207 Å² under setting [1] and 214.3 Å² under setting [3]. For the compound `CCc1c(C(=O)NN2CCCCC2)nn(-c2ccc(Cl)cc2Cl)c1-c1ccc(Br)cc1` [Surinabant], the “collision cross section in nitrogen” value reads like this: under setting [2], 224.8 Å²; under setting [1], 224.1 Å²; under setting [3], 232.1 Å²; under setting [4], 226.6 Å². In the case of `CCCCC1(COC(=O)CCC(=O)O)C(=O)N(c2ccccc2)N(c2ccccc2)C1=O` [Suxibuzone], the “collision cross section in nitrogen” value was determined as 201.3 Å² under setting [2], 200.8 Å² under setting [1] and 204.5 Å² under setting [3]. For `COC(=O)Nc1ccc(Cl)c(Cl)c1` [Swep], the “collision cross section in nitrogen” value under setting [4] was 140.9 Å². With `Nc1c2c(nc3ccccc13)CCCC2` [Tacrine], the “collision cross section in nitrogen” value is on record as 142.7 Å² under setting [1] and 145.4 Å² under setting [4].

For `C[C@]1(Cn2ccnn2)[C@H](C(=O)O)N2C(=O)C[C@H]2S1(=O)=O` [Tazobactam sodium], the “collision cross section in nitrogen” value reads like this: under setting [1], 161.8 Å²; under setting [4], 157.7 Å².

Consider `CC(C)(C)C(O)(CCc1ccc(Cl)cc1)Cn1cncn1` (configuration not stated) [Tebuconazole], for which the “collision cross section in nitrogen” value reads like this: under setting [2], 167.5 Å²; under setting [1], 166.8 Å²; under setting [3], 172.5 Å².

In the case of `CCc1ccc(C(=O)NN(C(=O)c2cc(C)cc(C)c2)C(C)(C)C)cc1` [Tebufenozide], the “collision cross section in nitrogen” value reads like this: under setting [3], 201.3 Å²; under setting [4], 193.6 Å². `CCc1nn(C)c(C(=O)NCc2ccc(C(C)(C)C)cc2)c1Cl` [Tebufenpyrad]: the “collision cross section in nitrogen” value under setting [2] is reported as 193.9 Å², the “collision cross section in nitrogen” value under setting [1] is 193 Å², the “collision cross section in nitrogen” value under setting [3] came to 193.2 Å² and the “collision cross section in nitrogen” value under setting [4] amounted to 194 Å².

As for `CCOP(=S)(Oc1cnc(C(C)(C)C)nc1)OC(C)C` (configuration not stated) [Tebupirimfos], the “collision cross section in nitrogen” value is, setting by setting: under setting [2], 177.4 Å²; under setting [1], 177.4 Å². Consider `CNC(=O)N(C)c1nnc(C(C)(C)C)s1` [Tebuthiuron], for which the “collision cross section in nitrogen” value runs as follows: under setting [2], 150.4 Å²; under setting [1], 150.5 Å²; under setting [3], 162.9 Å². `O=C(NC(=O)c1c(F)cccc1F)Nc1cc(Cl)c(F)c(Cl)c1F` [Teflubenzuron]: the “collision cross section in nitrogen” value under setting [4] was found to be 178.7 Å². With `CC1CN(c2cc3c(cc2F)c(=O)c(C(=O)O)cn3-c2ccc(F)cc2F)CCN1` (configuration not stated) [Temafloxacin], the “collision cross section in nitrogen” value worked out at 193 Å² under setting [1], 211.3 Å² under setting [3] and 209.4 Å² under setting [4]. On to `CS(=O)(=O)c1ccc(C(=O)C2C(=O)CCCC2=O)c(Cl)c1COCC(F)(F)F` [Tembotrione], for which the “collision cross section in nitrogen” value by setting is: under setting [1], 189.3 Å²; under setting [3], 185.1 Å²; under setting [4], 188.5 Å². As for `COP(=S)(OC)Oc1ccc(Sc2ccc(OP(=S)(OC)OC)cc2)cc1` [Temephos], the “collision cross section in nitrogen” value is reported as 189.4 Å² under setting [2], 189.5 Å² under setting [1] and 196.3 Å² under setting [3].

With `CCC(=NOC/C=C/Cl)C1=C(O)CC(C2CCOCC2)CC1=O` (configuration not stated) [Tepraloxydim], the “collision cross section in nitrogen” value under setting [1] came out at 185.8 Å², the “collision cross section in nitrogen” value under setting [3] is 191.1 Å² and the “collision cross section in nitrogen” value under setting [4] is given as 181.1 Å². `Cc1[nH]c(=O)n(C(C)(C)C)c(=O)c1Cl` [Terbacil]: the “collision cross section in nitrogen” value under setting [4] came to 144.9 Å². On to `CNC(=O)Oc1c(C(C)(C)C)cc(C)cc1C(C)(C)C` [Terbucarb], for which the “collision cross section in nitrogen” value under setting [3] was 176.8 Å². Same read-out and setting: with `CCOP(=S)(OCC)SCS(=O)(=O)C(C)(C)C` [Terbufos sulfone] the figure was 171.3 Å². On to `CCNc1nc(NC(C)(C)C)nc(OC)n1` [Terbumeton], for which the “collision cross section in nitrogen” value reads like this: under setting [2], 154.8 Å²; under setting [1], 154.9 Å²; under setting [3], 172.2 Å².

`CCNc1nc(NC(C)(C)C)nc(SC)n1` [Terbutryn]: the “collision cross section in nitrogen” value reads like this: under setting [2], 159.9 Å²; under setting [1], 159.4 Å².

Consider `CCNc1nc(Cl)nc(NC(C)(C)C)n1` [Terbutylazine], for which the “collision cross section in nitrogen” value reads like this: under setting [2], 153.8 Å²; under setting [1], 153.8 Å². As to `O=C(O)c1ccc(C(=O)O)cc1` [Terephthalic acid], the “collision cross section in nitrogen” value under setting [4] stood at 134 Å².

With `CC(c1cc(C(C)(C)C)cc(C(C)(C)C)c1O)c1cc(C(C)(C)C)cc(C(C)(C)C)c1O` [Tetrabutyl ethylidenebisphenol], the “collision cross section in nitrogen” value under setting [4] is 224.4 Å².

For `CCCC[N+](CCCC)(CCCC)CCCC` [Tetrabutylammonium bromide], the “collision cross section in nitrogen” value by setting is: under setting [5], 167.2 Å²; under setting [6], 168 Å². Take `CCCC[P+](CCCC)(CCCC)CCCC` [Tetrabutylphosphonium chloride]: the “collision cross section in nitrogen” value under setting [5] came to 172.4 Å². As for `O=C(O)Cc1cc(I)c(Oc2cc(I)c(O)c(I)c2)c(I)c1` [Tetrac], the “collision cross section in nitrogen” value under setting [4] amounted to 203.1 Å².

Take `Oc1c(O)c(Cl)c(Cl)c(Cl)c1Cl` [Tetrachlorocatechol]: the “collision cross section in nitrogen” value under setting [4] worked out at 135.1 Å². On to `O=C1OC(=O)c2c(Cl)c(Cl)c(Cl)c(Cl)c21` [Tetrachlorophthalic anhydride], for which, under setting [4], the “collision cross section in nitrogen” value was determined as 158.1 Å². With `FC(F)C(F)(F)OCC(Cn1cncn1)c1ccc(Cl)cc1Cl` (configuration not stated) [Tetraconazole], the “collision cross section in nitrogen” value is recorded as 177.6 Å² under setting [2] and 176.6 Å² under setting [1]. For the compound `CCCCCCCCCCCCCC(=O)O` [Tetradecanoic acid], the “collision cross section in nitrogen” value under setting [4] is recorded as 161.8 Å².

For `CCCCCCCCCCCCCC[n+]1ccccc1` [Tetradecylpyridinium bromide], the “collision cross section in nitrogen” value worked out at 185.4 Å² under setting [5] and 185.9 Å² under setting [6]. Take `CCCCCCCCCCCCCC[N+](C)(C)C` [Tetradonium bromide]: the “collision cross section in nitrogen” value was found to be 185.1 Å² under setting [5] and 185.7 Å² under setting [6]. As to `CCOP(=O)(CCP(=O)(OCC)OCC)OCC` [Tetraethyl ethylenebisphosphonate], the “collision cross section in nitrogen” value came out at 161.1 Å² under setting [1] and 172.3 Å² under setting [3]. As for `CC[N+](CC)(CC)CC` [Tetraethylammonium bromide], the “collision cross section in nitrogen” value under setting [6] is 125.7 Å².

As for `CCCCC(CC)C(=O)OCCOCCOCCOCCOC(=O)C(CC)CCCC` (configuration not stated) [Tetraethylene glycol di(2-ethylhexanoate)], the “collision cross section in nitrogen” value under setting [3] is reported as 214.4 Å².
